According to paper PMC3639963, “A New Class of Small Molecule Inhibitor of BMP Signaling” (PLoS ONE, 2013):

Key:
Experiment in all cases: Nanosyn kinase profiling
Type in all cases: biochemical
Conditions in all cases: read-out: Percentage inhibition; for inhibition at 0.1 µM: 0.1 µM inhibitor; for inhibition at 1 µM: 1 µM inhibitor
AKT1 = target: T1, AKT1 (Homo sapiens, UniProt P31749)
T1 construct: purchased Nanosyn (enzymatic panel); SGC in-house recombinant human kinases (DSF panel); Invitrogen (ALK1-6)
Method in brief: (§1)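 Percent inhibition of each kinase was measured with the inhibitor at 0.1 µM and at 1 µM, as part of a 200-kinase human selectivity panel.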

CK1γ3 = target: T2, CK1γ3 (Homo sapiens, UniProt Q9Y6M4)
T2 construct: purchased Nanosyn (enzymatic panel); SGC in-house recombinant human kinases (DSF panel); Invitrogen (ALK1-6)
Method in brief: as §1

FGFR1 = target: T3, FGFR1 (Homo sapiens, UniProt P11362)
T3 construct: purchased Nanosyn (enzymatic panel); SGC in-house recombinant human kinases (DSF panel); Invitrogen (ALK1-6)
Method in brief: as §1

LRRK2 = target: T4, LRRK2 (Homo sapiens, UniProt Q5S007)
T4 construct: purchased Nanosyn (enzymatic panel); SGC in-house recombinant human kinases (DSF panel); Invitrogen (ALK1-6)
T4 sequence (Q5S007 whole entry): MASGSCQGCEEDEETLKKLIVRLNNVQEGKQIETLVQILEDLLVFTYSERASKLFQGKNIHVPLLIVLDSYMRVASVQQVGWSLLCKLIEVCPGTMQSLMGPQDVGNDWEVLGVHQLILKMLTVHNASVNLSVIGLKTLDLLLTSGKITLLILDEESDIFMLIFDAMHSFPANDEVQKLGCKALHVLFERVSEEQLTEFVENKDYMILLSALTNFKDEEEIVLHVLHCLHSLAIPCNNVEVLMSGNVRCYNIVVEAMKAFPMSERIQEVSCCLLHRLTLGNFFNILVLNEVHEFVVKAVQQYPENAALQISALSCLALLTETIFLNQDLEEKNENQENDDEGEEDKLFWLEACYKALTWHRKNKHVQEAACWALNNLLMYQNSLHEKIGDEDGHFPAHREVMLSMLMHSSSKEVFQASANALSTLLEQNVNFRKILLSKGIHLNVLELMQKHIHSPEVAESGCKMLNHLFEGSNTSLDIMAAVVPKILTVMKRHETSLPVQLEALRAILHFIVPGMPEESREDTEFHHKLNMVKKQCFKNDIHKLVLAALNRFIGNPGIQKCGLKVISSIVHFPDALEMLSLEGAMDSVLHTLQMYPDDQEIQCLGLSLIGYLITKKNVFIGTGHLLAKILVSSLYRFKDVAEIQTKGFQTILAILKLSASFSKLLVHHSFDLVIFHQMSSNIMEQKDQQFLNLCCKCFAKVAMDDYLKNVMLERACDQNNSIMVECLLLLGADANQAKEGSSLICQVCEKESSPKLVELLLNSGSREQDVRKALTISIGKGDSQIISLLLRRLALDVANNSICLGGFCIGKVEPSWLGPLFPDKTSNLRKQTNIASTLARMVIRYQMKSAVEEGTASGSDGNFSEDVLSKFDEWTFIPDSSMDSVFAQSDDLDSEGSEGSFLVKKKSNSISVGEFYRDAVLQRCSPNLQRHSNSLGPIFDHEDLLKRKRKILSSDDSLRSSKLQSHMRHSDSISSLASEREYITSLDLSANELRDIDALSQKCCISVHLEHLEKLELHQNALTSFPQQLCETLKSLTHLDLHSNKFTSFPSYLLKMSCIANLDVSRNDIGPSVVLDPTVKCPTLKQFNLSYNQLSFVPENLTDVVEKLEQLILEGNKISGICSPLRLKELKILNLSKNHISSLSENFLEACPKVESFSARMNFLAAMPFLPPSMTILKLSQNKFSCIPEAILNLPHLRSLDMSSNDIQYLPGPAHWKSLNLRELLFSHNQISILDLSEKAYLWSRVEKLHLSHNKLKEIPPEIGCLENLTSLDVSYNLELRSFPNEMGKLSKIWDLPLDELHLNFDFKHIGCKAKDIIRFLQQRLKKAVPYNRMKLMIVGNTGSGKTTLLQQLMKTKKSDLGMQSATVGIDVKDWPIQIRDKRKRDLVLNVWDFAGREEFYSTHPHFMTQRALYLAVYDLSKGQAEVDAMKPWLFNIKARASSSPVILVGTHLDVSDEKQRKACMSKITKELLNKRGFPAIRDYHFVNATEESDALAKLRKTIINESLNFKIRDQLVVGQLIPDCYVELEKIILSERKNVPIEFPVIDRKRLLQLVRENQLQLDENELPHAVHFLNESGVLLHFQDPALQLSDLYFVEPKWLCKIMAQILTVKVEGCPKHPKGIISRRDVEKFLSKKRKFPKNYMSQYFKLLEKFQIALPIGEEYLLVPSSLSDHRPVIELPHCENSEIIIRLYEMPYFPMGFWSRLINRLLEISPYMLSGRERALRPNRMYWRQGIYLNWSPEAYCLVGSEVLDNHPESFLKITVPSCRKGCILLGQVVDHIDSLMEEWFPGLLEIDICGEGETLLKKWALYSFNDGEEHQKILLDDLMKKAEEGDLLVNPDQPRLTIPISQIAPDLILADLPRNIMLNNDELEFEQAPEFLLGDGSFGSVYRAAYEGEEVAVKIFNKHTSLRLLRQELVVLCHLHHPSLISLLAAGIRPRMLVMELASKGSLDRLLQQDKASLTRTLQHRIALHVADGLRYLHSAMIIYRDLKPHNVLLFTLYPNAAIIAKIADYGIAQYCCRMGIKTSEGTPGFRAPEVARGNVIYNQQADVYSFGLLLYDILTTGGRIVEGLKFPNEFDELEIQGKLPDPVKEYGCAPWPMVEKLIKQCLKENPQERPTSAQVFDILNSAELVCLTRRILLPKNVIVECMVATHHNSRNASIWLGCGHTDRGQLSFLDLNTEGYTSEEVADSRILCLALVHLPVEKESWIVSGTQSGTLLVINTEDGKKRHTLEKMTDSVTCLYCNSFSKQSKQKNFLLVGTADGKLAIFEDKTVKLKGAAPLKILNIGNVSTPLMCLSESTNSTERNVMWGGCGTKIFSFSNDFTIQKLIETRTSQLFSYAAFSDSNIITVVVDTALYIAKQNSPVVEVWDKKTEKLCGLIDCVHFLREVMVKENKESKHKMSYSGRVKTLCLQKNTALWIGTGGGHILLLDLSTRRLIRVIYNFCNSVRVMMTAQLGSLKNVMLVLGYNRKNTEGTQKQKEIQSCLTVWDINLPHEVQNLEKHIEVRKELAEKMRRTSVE
Method in brief: as §1

MAP4K2 = target: T5, MAP4K2 (Homo sapiens, UniProt Q12851)
T5 construct: purchased Nanosyn (enzymatic panel); SGC in-house recombinant human kinases (DSF panel); Invitrogen (ALK1-6)
T5 sequence (Q12851 1-820): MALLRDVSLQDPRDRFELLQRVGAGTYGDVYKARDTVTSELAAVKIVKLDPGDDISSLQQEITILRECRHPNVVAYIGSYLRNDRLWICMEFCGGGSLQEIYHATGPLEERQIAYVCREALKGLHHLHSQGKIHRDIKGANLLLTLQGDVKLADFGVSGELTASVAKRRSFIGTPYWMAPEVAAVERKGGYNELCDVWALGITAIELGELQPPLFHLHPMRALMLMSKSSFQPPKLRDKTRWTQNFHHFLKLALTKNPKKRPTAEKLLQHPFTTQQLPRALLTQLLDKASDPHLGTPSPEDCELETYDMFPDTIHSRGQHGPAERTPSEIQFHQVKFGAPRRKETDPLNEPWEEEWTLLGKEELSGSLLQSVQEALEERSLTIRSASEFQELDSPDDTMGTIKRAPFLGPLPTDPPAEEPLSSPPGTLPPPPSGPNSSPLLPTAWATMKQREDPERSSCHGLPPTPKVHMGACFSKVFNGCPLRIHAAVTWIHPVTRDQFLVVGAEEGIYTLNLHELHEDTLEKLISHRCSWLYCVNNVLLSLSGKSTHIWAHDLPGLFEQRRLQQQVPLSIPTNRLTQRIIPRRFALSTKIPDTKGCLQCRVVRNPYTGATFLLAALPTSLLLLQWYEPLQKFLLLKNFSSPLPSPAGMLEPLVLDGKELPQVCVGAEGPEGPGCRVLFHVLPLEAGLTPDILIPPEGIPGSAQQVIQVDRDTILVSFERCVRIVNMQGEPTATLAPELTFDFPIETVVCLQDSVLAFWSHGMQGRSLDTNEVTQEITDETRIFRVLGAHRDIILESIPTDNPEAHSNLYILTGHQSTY
Method in brief: as §1

PIM2 = target: T6, PIM2 (Homo sapiens, UniProt Q9P1W9)
T6 construct: purchased Nanosyn (enzymatic panel); SGC in-house recombinant human kinases (DSF panel); Invitrogen (ALK1-6)
T6 sequence (Q9P1W9 whole entry): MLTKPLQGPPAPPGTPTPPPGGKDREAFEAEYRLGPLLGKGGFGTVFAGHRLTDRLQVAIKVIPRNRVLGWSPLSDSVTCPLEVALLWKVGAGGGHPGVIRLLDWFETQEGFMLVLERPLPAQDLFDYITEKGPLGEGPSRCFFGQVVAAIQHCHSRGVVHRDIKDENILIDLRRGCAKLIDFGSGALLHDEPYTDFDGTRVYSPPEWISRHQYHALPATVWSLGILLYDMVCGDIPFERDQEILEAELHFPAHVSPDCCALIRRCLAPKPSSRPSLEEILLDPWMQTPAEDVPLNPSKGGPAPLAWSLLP
Method in brief: as §1

PKA = target: T7, PKA (Homo sapiens, UniProt P17612)
T7 construct: purchased Nanosyn (enzymatic panel); SGC in-house recombinant human kinases (DSF panel); Invitrogen (ALK1-6)
Method in brief: as §1

PKCα = target: T8, PKCα (Homo sapiens, UniProt P17252)
T8 construct: purchased Nanosyn (enzymatic panel); SGC in-house recombinant human kinases (DSF panel); Invitrogen (ALK1-6)
Method in brief: as §1

RSK1 = target: T9, RSK1 (Homo sapiens, UniProt Q15418)
T9 construct: purchased Nanosyn (enzymatic panel); SGC in-house recombinant human kinases (DSF panel); Invitrogen (ALK1-6)
Method in brief: as §1

SRPK1 = target: T10, SRPK1 (Homo sapiens, UniProt Q96SB4)
T10 construct: purchased Nanosyn (enzymatic panel); SGC in-house recombinant human kinases (DSF panel); Invitrogen (ALK1-6)
T10 sequence (Q96SB4 whole entry): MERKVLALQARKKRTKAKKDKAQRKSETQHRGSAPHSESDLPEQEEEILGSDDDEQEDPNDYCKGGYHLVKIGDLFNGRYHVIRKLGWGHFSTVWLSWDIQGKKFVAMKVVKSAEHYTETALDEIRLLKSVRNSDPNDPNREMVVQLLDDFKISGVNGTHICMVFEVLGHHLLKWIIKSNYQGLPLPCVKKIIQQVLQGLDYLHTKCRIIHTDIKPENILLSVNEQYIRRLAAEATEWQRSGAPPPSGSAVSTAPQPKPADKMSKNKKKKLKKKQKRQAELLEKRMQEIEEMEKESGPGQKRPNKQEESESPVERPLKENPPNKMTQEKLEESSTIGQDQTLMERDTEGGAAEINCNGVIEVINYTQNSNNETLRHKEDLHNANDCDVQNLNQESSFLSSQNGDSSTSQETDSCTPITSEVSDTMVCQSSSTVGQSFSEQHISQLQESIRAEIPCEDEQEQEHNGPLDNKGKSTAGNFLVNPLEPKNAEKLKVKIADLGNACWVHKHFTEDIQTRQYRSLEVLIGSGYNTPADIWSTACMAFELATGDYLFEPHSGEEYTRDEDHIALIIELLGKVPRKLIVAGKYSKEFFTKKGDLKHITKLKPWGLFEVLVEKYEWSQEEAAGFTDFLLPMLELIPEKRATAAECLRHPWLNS
Method in brief: as §1

TRKC = target: T11, TRKC (Homo sapiens, UniProt Q16288)
T11 construct: purchased Nanosyn (enzymatic panel); SGC in-house recombinant human kinases (DSF panel); Invitrogen (ALK1-6)
T11 sequence (Q16288 32-839): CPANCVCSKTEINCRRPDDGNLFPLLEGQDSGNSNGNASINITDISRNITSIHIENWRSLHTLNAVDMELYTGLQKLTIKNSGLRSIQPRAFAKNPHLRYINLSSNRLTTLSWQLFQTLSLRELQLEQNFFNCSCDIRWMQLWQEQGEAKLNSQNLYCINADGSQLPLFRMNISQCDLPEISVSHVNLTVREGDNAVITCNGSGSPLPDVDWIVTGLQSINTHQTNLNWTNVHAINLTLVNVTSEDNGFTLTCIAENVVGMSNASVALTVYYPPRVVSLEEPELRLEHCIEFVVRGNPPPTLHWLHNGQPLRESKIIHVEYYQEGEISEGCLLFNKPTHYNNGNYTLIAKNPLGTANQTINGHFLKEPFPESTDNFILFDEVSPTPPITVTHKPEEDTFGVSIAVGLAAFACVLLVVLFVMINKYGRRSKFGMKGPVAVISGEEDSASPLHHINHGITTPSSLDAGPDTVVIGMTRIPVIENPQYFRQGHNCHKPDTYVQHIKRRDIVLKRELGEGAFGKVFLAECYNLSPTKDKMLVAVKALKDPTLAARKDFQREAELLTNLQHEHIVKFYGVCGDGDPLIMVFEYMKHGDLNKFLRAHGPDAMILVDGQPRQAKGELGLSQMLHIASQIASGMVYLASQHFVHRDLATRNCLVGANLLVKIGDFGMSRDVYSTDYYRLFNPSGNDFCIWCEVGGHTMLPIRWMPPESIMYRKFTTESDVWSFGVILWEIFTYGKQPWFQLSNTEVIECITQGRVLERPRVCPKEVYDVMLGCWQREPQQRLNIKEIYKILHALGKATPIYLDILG
Method in brief: as §1

TSSK1 = target: T12, TSSK1 (Homo sapiens, UniProt Q9BXA7)
T12 construct: purchased Nanosyn (enzymatic panel); SGC in-house recombinant human kinases (DSF panel); Invitrogen (ALK1-6)
T12 sequence (Q9BXA7 1-367): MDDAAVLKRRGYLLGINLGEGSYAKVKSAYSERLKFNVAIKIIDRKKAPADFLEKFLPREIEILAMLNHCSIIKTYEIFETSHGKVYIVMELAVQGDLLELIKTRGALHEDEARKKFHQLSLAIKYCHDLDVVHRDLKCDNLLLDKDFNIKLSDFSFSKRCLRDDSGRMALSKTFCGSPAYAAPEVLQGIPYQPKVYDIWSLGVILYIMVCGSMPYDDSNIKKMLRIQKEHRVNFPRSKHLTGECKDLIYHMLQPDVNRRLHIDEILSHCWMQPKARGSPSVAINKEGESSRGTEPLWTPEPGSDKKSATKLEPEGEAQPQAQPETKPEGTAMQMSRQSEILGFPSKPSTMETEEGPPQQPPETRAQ
Method in brief: as §1

| SMILES | inhibition at 0.1 µM (AKT1) [%] | inhibition at 1 µM (AKT1) [%] | inhibition at 0.1 µM (CK1γ3) [%] | inhibition at 1 µM (CK1γ3) [%] | inhibition at 0.1 µM (FGFR1) [%] | inhibition at 1 µM (FGFR1) [%] | inhibition at 0.1 µM (LRRK2) [%] | inhibition at 1 µM (LRRK2) [%] | inhibition at 0.1 µM (MAP4K2) [%] | inhibition at 1 µM (MAP4K2) [%] | inhibition at 0.1 µM (PIM2) [%] | inhibition at 1 µM (PIM2) [%] | inhibition at 0.1 µM (PKA) [%] | inhibition at 1 µM (PKA) [%] | inhibition at 0.1 µM (PKCα) [%] | inhibition at 1 µM (PKCα) [%] | inhibition at 0.1 µM (RSK1) [%] | inhibition at 1 µM (RSK1) [%] | inhibition at 0.1 µM (SRPK1) [%] | inhibition at 1 µM (SRPK1) [%] | other results |
| --- | --- | --- | --- | --- | --- | --- | --- | --- | --- | --- | --- | --- | --- | --- | --- | --- | --- | --- | --- | --- | --- |
| COc1cc(-c2cc(-c3cccc(O)c3)cnc2N)cc(OC)c1OC [K02288, 3-[6-amino-5-(3,4,5-trimethoxy-phenyl)-pyridin-3-yl]-phenol] | -2 | -1 | 2.7 | 19 | -1 | -3 | 7.1 | 27 | 18 | 53 | 0.9 | 2.3 | 0.3 | 6.1 | 0.2 | 2.2 | 0.8 | 1.8 | 3.2 | 2.7 | inhibition at 0.1 µM (TRKC): 2.7%; inhibition at 1 µM (TRKC): 2.4%; inhibition at 0.1 µM (TSSK1): -1%; inhibition at 1 µM (TSSK1): -2% |
| c1ccc2c(-c3cnn4cc(-c5ccc(N6CCNCC6)cc5)cnc34)ccnc2c1 [LDN-193189] | 0.8 | 1.6 | 2.3 | 5.5 | 3.4 | 19 | 8.7 | 27 | 21 | 65 | 0 | 0 | 1.4 | 2.1 | 1 | 1.1 | 0.6 | 8 | -1 | -2 | inhibition at 0.1 µM (TRKC): 1.6%; inhibition at 1 µM (TRKC): 3.9%; inhibition at 0.1 µM (TSSK1): 3.5%; inhibition at 1 µM (TSSK1): 5.2% |
